Reference: ChEMBL document CHEMBL1132827, “New multidrug resistance modulators from Atractylodis Lanceae Rhizoma” (2000)

Key:
[1] = test system: KB 3-1; test: Cytotoxicity (10 ug/mL) was evaluated against KB-3-1 cell lines by observing the effect on growth of cells tested; type: functional, Homo sapiens
[2] = test system: KB-C2; test: Inhibition of growth of KB-C2 cells at the dose of 1 ug/mL of compound in presence of 0.1 ug/mL of colchicine
[3] = test system: KB 3-1; test: Cytotoxicity (1 ug/mL) was evaluated against KB-3-1 cell lines by observing the effect on growth of cells tested; type: functional, Homo sapiens
[4] = test system: KB-C2; test: Inhibition of growth of KB-C2 cells at the dose of 10 ug/mL of compound in presence of 0.1 ug/mL of colchicine
[5] = test system: KB-C2; test: Inhibition of growth of KB-C2 cells at the dose of 3 ug/mL of compound in presence of 0.1 ug/mL of colchicine
[6] = test system: KB 3-1; test: Cytotoxicity (3 ug/mL) was evaluated against KB-3-1 cell lines by observing the effect on growth of cells tested; type: functional, Homo sapiens

Structure (SMILES) | Inhibition [1] | Inhibition [2] | Inhibition [3] | Inhibition [4] | Inhibition [5] | Inhibition [6]
CC(C)CC(=O)OC[C@H]1O[C@@](COC(=O)CC(C)C)(O[C@@H]2O[C@H](CO)[C@@H](O)[C@H](O)[C@H]2OC(=O)CC(C)C)[C@@H](OC(=O)CC(C)C)[C@@H]1O.CC[C@@H](C)C(=O)OC[C@@]1(O[C@@H]2O[C@H](CO)[C@@H](O)[C@H](O)[C@H]2OC(=O)CC(C)C)O[C@H](COC(=O)CC(C)C)[C@@H](O)[C@@H]1OC(=O)CC(C)C | 20% | 23% | 17% | 33% | 32% | 19%
CC(C)CC(=O)OC[C@H]1O[C@@](COC(=O)C(C)C)(O[C@@H]2O[C@H](CO)[C@@H](O)[C@H](O)[C@H]2OC(=O)CC(C)C)[C@@H](OC(=O)CC(C)C)[C@@H]1OC(=O)CC(C)C.CC(C)CC(=O)OC[C@H]1O[C@@](COC(=O)CC(C)C)(O[C@@H]2O[C@H](CO)[C@@H](O)[C@H](O)[C@H]2OC(=O)CC(C)C)[C@@H](OC(=O)CC(C)C)[C@@H]1OC(=O)C(C)C.CC[C@@H](C)C(=O)OC[C@@]1(O[C@@H]2O[C@H](CO)[C@@H](O)[C@H](O)[C@H]2OC(=O)CC(C)C)O[C@H](COC(=O)CC(C)C)[C@@H](OC(=O)C(C)C)[C@@H]1OC(=O)CC(C)C.CC[C@@H](C)C(=O)O[C@@H]1[C@@H](COC(=O)CC(C)C)O[C@@](COC(=O)C(C)C)(O[C@@H]2O[C@H](CO)[C@@H](O)[C@H](O)[C@H]2OC(=O)CC(C)C)[C@H]1OC(=O)CC(C)C | 94% | 38% | 6% | 96% | 83% | 13%
CC(C)CC(=O)OC[C@H]1O[C@@](COC(=O)CC(C)C)(O[C@H]2O[C@H](CO)[C@@H](O)[C@H](O)[C@H]2OC(=O)CC(C)C)[C@@H](OC(=O)CC(C)C)[C@@H]1OC(=O)CC(C)C.CC[C@@H](C)C(=O)OC[C@@]1(O[C@H]2O[C@H](CO)[C@@H](O)[C@H](O)[C@H]2OC(=O)CC(C)C)O[C@H](COC(=O)CC(C)C)[C@@H](OC(=O)CC(C)C)[C@@H]1OC(=O)CC(C)C.CC[C@@H](C)C(=O)O[C@@H]1[C@@H](COC(=O)CC(C)C)O[C@@](COC(=O)CC(C)C)(O[C@H]2O[C@H](CO)[C@@H](O)[C@H](O)[C@H]2OC(=O)CC(C)C)[C@H]1OC(=O)CC(C)C | 95% | 57% | 11% | 96% | 86% | 14%
